Patent publication US20100113291A1 (CENTRE NATIONAL DE LA RECHERCHE SCIENTIFIQUE, priority 2006, published 2010)

Target: T1, MabA-wt (Mycobacterium tuberculosis, UniProt P9WGT3)
T1 construct: made in house; host or cells: Escherichia coli
Type: binding
Conditions: spectrofluorimetry; read-out: KD for the cofactor

T1 sequence (P9WGT3 whole entry): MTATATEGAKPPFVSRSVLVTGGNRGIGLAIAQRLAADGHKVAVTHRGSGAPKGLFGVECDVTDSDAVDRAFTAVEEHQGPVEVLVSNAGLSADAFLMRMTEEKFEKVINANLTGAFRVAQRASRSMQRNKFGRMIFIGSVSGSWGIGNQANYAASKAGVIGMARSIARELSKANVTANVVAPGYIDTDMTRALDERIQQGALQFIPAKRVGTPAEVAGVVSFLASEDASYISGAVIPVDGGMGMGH

**Q.** Which Kd does the source give for `NC(=O)C1=CN([C@@H]2O[C@H](COP(=O)(O)OP(=O)(O)OC[C@H]3O[C@@H](n4cnc5c(N)ncnc54)[C@H](OP(=O)(O)O)[C@@H]3O)[C@@H](O)[C@H]2O)C=CC1` [NADPH] here?
**A.** The Kd was 8.7 µM.
